What was measured:
[1] = molecular target: MDR1 (ABCB1, P-gp) ATPase (Homo sapiens, UniProt P08183); assay: Inhibition of MDR1 (unknown origin) ATPase activity expressed in sf9 cell membranes assessed as residual activity at 20 uM using ATP as substrate preincubated for 5 mins followed by substrate addition measured after 20 mins by spectrophotometric method relative to control; conditions: Sf9 cell membranes expressing MDR1, probe ATP, read-out: Activity
[2] = Antiproliferative activity against human HCT116/VP35 cells after 72 hrs by phosphatase assay; format: functional, cell-based; conditions: HCT-116, 72 h
[3] = Apparent permeability from basolateral to apical side in human Caco2 cells; format: ADME, cell-based; conditions: Caco-2
[4] = system: MDA-MB-468; assay: Antiproliferative activity against human MDA-MB-468 cells after 72 hrs by phosphatase assay; format: functional, cell-based; conditions: MDA-MB-468, 72 h
[5] = Displacement of BODIPY-labeled vinblastine from tubulin (unknown origin) at 18 uM after 60 mins by fluorescence assay relative to control; conditions: Homo sapiens
[6] = system: LNCaP; assay: Antiproliferative activity against human LNCAP cells after 72 hrs by phosphatase assay; format: functional, cell-based
[7] = Cytotoxicity against human HCT116/VM46 cells assessed as reduction in cell viability after 72 hrs by phosphatase assay; format: cell-based; conditions: HCT-116/VM46, 72 h
[8] = system: LS174T; assay: Antiproliferative activity against human LS174T cells after 72 hrs by phosphatase assay; format: functional, cell-based
[9] = system: HCT-116; assay: Antiproliferative activity against human HCT116 cells after 72 hrs by phosphatase assay; format: functional, cell-based; conditions: HCT-116, 72 h
[10] = system: L1210; assay: Antiproliferative activity against mouse L1210 cells after 72 hrs by phosphatase assay; format: functional, cell-based; conditions: L1210, 72 h
[11] = system: PA-1; assay: Antiproliferative activity against human PA1 cells after 72 hrs by phosphatase assay; format: functional, cell-based; conditions: PA-1, 72 h
[12] = system: NCI-H520; assay: Antiproliferative activity against human NCI-H520 cells after 72 hrs by phosphatase assay; format: functional, cell-based; conditions: NCI-H520, 72 h
[13] = Cytotoxicity against human HCT116/VM46 cells assessed as reduction in cell viability; format: cell-based; conditions: HCT-116/VM46
[14] = system: L1210; assay: Antiproliferative activity against mouse L1210 cells; format: functional, cell-based
[15] = system: HCT-116; assay: Antiproliferative activity against human HCT116 cells; format: functional, cell-based

Chain of MDR1 (ABCB1, P-gp) ATPase (P08183 whole entry): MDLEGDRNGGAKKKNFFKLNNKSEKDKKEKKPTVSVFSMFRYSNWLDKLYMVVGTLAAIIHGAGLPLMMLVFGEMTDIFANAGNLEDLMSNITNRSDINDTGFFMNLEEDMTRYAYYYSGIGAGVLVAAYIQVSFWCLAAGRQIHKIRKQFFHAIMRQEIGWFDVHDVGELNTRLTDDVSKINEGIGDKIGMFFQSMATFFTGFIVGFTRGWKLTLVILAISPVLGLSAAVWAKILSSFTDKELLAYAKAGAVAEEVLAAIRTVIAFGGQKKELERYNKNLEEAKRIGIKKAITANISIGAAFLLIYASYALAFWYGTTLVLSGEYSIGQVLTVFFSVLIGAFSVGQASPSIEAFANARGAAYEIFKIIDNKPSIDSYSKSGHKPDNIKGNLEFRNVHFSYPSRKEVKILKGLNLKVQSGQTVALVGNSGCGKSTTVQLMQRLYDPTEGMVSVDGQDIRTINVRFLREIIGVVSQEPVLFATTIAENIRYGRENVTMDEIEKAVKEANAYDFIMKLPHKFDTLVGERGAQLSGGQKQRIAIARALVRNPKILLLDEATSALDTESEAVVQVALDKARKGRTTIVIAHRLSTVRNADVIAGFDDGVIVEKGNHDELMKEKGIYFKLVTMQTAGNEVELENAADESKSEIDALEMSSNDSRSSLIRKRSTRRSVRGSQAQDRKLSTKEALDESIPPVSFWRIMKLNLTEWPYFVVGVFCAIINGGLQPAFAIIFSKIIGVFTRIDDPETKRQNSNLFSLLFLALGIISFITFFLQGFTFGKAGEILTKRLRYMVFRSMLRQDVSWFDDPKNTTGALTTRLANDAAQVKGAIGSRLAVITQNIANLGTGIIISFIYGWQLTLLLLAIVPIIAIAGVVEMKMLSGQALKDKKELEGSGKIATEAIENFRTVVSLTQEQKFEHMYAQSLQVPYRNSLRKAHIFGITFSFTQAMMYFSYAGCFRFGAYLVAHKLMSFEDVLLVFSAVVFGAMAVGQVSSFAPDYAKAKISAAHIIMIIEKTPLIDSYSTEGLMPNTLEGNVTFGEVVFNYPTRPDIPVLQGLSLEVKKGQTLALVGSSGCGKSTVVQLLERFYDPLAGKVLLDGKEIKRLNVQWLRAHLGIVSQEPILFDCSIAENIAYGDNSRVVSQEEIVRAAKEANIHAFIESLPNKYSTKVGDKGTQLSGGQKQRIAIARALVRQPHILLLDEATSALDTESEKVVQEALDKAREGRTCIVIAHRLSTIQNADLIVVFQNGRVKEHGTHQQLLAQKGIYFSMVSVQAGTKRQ

SMILES | inhibition [5] | IC50 [7] | IC50 [9] | IC50 [10] | other results
CC[C@]1(O)C[C@@H]2CN(CCc3c([nH]c4ccccc34)[C@@](C(=O)OC)(c3cc4c(cc3OC)N(C)[C@H]3[C@@](O)(C(=O)OC)[C@H](OC(C)=O)[C@]5(CC)C=CCN6CC[C@]43[C@@H]65)C2)C1 [VINBLASTINE] | 50 to 61% | 110 to 600 nM |  |  | activity at 20 min, 20 µM [1]: 87%; IC50 [2]: 37 nM; Papp B→A [3]: 38.2 ×10⁻⁶ cm/s; IC50 [4]: 14 nM; IC50 [6]: 5.1 nM; IC50 [8]: 20 nM
CC[C@]1(NC(=O)c2ccccc2)C[C@H]2CN(CCc3c([nH]c4ccccc34)[C@@](C(=O)OC)(c3cc4c(cc3OC)N(C)[C@H]3[C@@](O)(C(=O)OC)[C@H](OC(C)=O)[C@]5(CC)C=CCN6CC[C@]43[C@@H]65)C2)C1 | 72% | 20 nM | 0.8 nM | 1.1 nM | 
CC(=O)O[C@H]1C(=O)[C@@]2(C)[C@H]([C@H](OC(=O)c3ccccc3)[C@]3(O)C[C@H](OC(=O)[C@H](O)[C@@H](NC(=O)c4ccccc4)c4ccccc4)C(C)=C1C3(C)C)[C@]1(OC(C)=O)CO[C@@H]1C[C@@H]2O [PACLITAXEL] |  | > 200 nM | 4.1 nM |  | IC50 [11]: 3 nM; IC50 [2]: 6.3 nM; IC50 [4]: 5.4 nM; IC50 [6]: 1.9 nM; IC50 [12]: 8.2 nM; IC50 [8]: 9.5 nM
CC[C@]1(NC=O)C[C@H]2CN(CCc3c([nH]c4ccccc34)[C@@](C(=O)OC)(c3cc4c(cc3OC)N(C)[C@H]3[C@@](O)(C(=O)OC)[C@H](OC(C)=O)[C@]5(CC)C=CCN6CC[C@]43[C@@H]65)C2)C1 |  |  |  |  | IC50 [13]: 6500 nM; IC50 [14]: 65 nM
CC[C@]1(NC(=O)C(F)(F)F)C[C@H]2CN(CCc3c([nH]c4ccccc34)[C@@](C(=O)OC)(c3cc4c(cc3OC)N(C)[C@H]3[C@@](O)(C(=O)OC)[C@H](OC(C)=O)[C@]5(CC)C=CCN6CC[C@]43[C@@H]65)C2)C1 |  |  |  |  | IC50 [15]: 690 nM; IC50 [13]: 8100 nM; IC50 [14]: 660 nM
CC[C@]1(NC(C)=O)C[C@H]2CN(CCc3c([nH]c4ccccc34)[C@@](C(=O)OC)(c3cc4c(cc3OC)N(C)[C@H]3[C@@](O)(C(=O)OC)[C@H](OC(C)=O)[C@]5(CC)C=CCN6CC[C@]43[C@@H]65)C2)C1 |  |  |  |  | IC50 [13]: 7500 nM; IC50 [14]: 65 nM
CC[C@]1(NC(=O)c2ccc(C#N)cc2)C[C@H]2CN(CCc3c([nH]c4ccccc34)[C@@](C(=O)OC)(c3cc4c(cc3OC)N(C)[C@H]3[C@@](O)(C(=O)OC)[C@H](OC(C)=O)[C@]5(CC)C=CCN6CC[C@]43[C@@H]65)C2)C1 | 56% | 60 nM | 3.1 nM | 4.4 nM | 
CC[C@]1(NC(=O)c2ccc(C)c(C)c2)C[C@H]2CN(CCc3c([nH]c4ccccc34)[C@@](C(=O)OC)(c3cc4c(cc3OC)N(C)[C@H]3[C@@](O)(C(=O)OC)[C@H](OC(C)=O)[C@]5(CC)C=CCN6CC[C@]43[C@@H]65)C2)C1 | 67% | 7.6 to 9 nM | 4.5 to 4.6 nM | 3 nM | IC50 [11]: 2.3 nM; IC50 [2]: 5.8 nM; IC50 [4]: 4.8 nM; IC50 [6]: 3 nM; IC50 [12]: 1.4 nM; IC50 [8]: 6.1 nM
CC[C@]1(NC(=O)c2ccc3c(c2)CCCC3)C[C@H]2CN(CCc3c([nH]c4ccccc34)[C@@](C(=O)OC)(c3cc4c(cc3OC)N(C)[C@H]3[C@@](O)(C(=O)OC)[C@H](OC(C)=O)[C@]5(CC)C=CCN6CC[C@]43[C@@H]65)C2)C1 | 63% | 8.7 to 14 nM | 4.9 nM | 3.3 nM | IC50 [11]: 2.6 nM; activity at 20 min, 20 µM [1]: 0%; IC50 [2]: 6.2 nM; Papp B→A [3]: 2 ×10⁻⁶ cm/s; IC50 [4]: 6.3 nM; IC50 [6]: 3.9 nM; IC50 [12]: 1.8 nM; IC50 [8]: 6.6 nM
CC[C@]1(NC(=O)c2ccc3c(c2)CCCO3)C[C@H]2CN(CCc3c([nH]c4ccccc34)[C@@](C(=O)OC)(c3cc4c(cc3OC)N(C)[C@H]3[C@@](O)(C(=O)OC)[C@H](OC(C)=O)[C@]5(CC)C=CCN6CC[C@]43[C@@H]65)C2)C1 | 98% | 1.8 to 4.9 nM | 0.5 to 0.7 nM | 0.4 nM | IC50 [11]: 1 nM; IC50 [2]: 1.4 nM; IC50 [4]: 1.2 nM; IC50 [6]: 0.8 nM; IC50 [12]: 0.8 nM; IC50 [8]: 2.4 nM
CC[C@]1(NC(=O)c2ccc(N(C)C)cc2)C[C@H]2CN(CCc3c([nH]c4ccccc34)[C@@](C(=O)OC)(c3cc4c(cc3OC)N(C)[C@H]3[C@@](O)(C(=O)OC)[C@H](OC(C)=O)[C@]5(CC)C=CCN6CC[C@]43[C@@H]65)C2)C1 | 88% | 4.1 nM |  | 0.18 nM | 
CCc1cc(CC)cc(C(=O)N[C@@]2(CC)C[C@H]3CN(CCc4c([nH]c5ccccc45)[C@@](C(=O)OC)(c4cc5c(cc4OC)N(C)[C@H]4[C@@](O)(C(=O)OC)[C@H](OC(C)=O)[C@]6(CC)C=CCN7CC[C@]54[C@@H]76)C3)C2)c1 |  | 66 nM | 6.4 nM | 4.2 nM | 
CC[C@]1(NC(=O)c2ccc(OC)c(Cl)c2)C[C@H]2CN(CCc3c([nH]c4ccccc34)[C@@](C(=O)OC)(c3cc4c(cc3OC)N(C)[C@H]3[C@@](O)(C(=O)OC)[C@H](OC(C)=O)[C@]5(CC)C=CCN6CC[C@]43[C@@H]65)C2)C1 |  | 8.9 nM | 5.1 nM | 3.7 nM | 
CC[C@]1(NC(=O)c2cc3ccccc3o2)C[C@H]2CN(CCc3c([nH]c4ccccc34)[C@@](C(=O)OC)(c3cc4c(cc3OC)N(C)[C@H]3[C@@](O)(C(=O)OC)[C@H](OC(C)=O)[C@]5(CC)C=CCN6CC[C@]43[C@@H]65)C2)C1 |  | 15 nM | 1.1 nM | 1.8 nM | 
CC[C@]1(NC(=O)c2ccc3c(c2)C(C)(C)CCC3(C)C)C[C@H]2CN(CCc3c([nH]c4ccccc34)[C@@](C(=O)OC)(c3cc4c(cc3OC)N(C)[C@H]3[C@@](O)(C(=O)OC)[C@H](OC(C)=O)[C@]5(CC)C=CCN6CC[C@]43[C@@H]65)C2)C1 |  | 50 nM | 7.8 nM | 7.4 nM | 
CC[C@]1(NC(=O)c2ccc3sccc3c2)C[C@H]2CN(CCc3c([nH]c4ccccc34)[C@@](C(=O)OC)(c3cc4c(cc3OC)N(C)[C@H]3[C@@](O)(C(=O)OC)[C@H](OC(C)=O)[C@]5(CC)C=CCN6CC[C@]43[C@@H]65)C2)C1 |  | 16 nM | 4.9 nM | 4.2 nM | 
CC[C@]1(NC(=O)c2ccc(OC)c(Br)c2)C[C@H]2CN(CCc3c([nH]c4ccccc34)[C@@](C(=O)OC)(c3cc4c(cc3OC)N(C)[C@H]3[C@@](O)(C(=O)OC)[C@H](OC(C)=O)[C@]5(CC)C=CCN6CC[C@]43[C@@H]65)C2)C1 |  | 40 nM | 6.2 nM | 5.1 nM | 
CC[C@]1(NC(=O)c2ccc(N(C)C(=O)OC(C)(C)C)cc2)C[C@H]2CN(CCc3c([nH]c4ccccc34)[C@@](C(=O)OC)(c3cc4c(cc3OC)N(C)[C@H]3[C@@](O)(C(=O)OC)[C@H](OC(C)=O)[C@]5(CC)C=CCN6CC[C@]43[C@@H]65)C2)C1 |  | 35 nM | 3.9 nM | 4.1 nM | 
